Structures are written as SMILES. Structures can show the parent of a compound that is named as a salt.

By IC50 is commonly meant the concentration at which inhibition is half-maximal.

This experiment concerns the target T1, human factor Xa (Homo sapiens, UniProt P00742).
T1 construct: released from the colourless chromogenic substrate by human factor Xa; purchased Roche
Put plainly: Factor Xa inhibition, enzyme-kinetic measurement with chromogenic substrate. In kind it is biochemical. The conditions noted are these: chromogenic substrate Chromozym X, pNA release at 405 nm, pH 8.0, 37° C. How it is done: The compounds of Examples 1 to 45 of the present application were investigated for their effect on the inhibition of factor Xa as follows: Method: Enzyme-kinetic measurement with chromogenic substrate. The quantity of p-nitroaniline (pNA) released from the colourless chromogenic substrate by human factor Xa is determined photometrically at 405 nm. It is proportional to the activity of the enzyme used. The inhibition of the enzyme activity by the test substance (in relation to the solvent control) is determined at various concentrations of test substance and from this the IC50 is calculated, as the concentration which inhibits the factor Xa used by 50%.
Tris(hydroxymethyl)-aminomethane buffer (100 mMol) of and sodium chloride (150 mMol), pH 8.0
Factor Xa (Roche), spec. activity: 10 U/0.5 ml, final concentration: 0.175 U/ml for each reaction mixture
Substrate Chromozym X (Roche), final concentration: 200 μMol/l for each reaction mixture
10 μl of a 23.5-times concentrated starting solution of the test substance or solvent (control), 175 μl of tris(hydroxymethyl)-aminomethane buffer and 25 μl of a 1.65 U/ml Factor Xa working solution are incubated for 10 minutes at 37° C. After the addition of 25 μl of Chromozym X working solution ([…]) the sample is measured in a photometer (SpectraMax 250) at 405 nm for 150 seconds at 37° C.
1. […]

T1 sequence (P00742 235-488 limits assumed): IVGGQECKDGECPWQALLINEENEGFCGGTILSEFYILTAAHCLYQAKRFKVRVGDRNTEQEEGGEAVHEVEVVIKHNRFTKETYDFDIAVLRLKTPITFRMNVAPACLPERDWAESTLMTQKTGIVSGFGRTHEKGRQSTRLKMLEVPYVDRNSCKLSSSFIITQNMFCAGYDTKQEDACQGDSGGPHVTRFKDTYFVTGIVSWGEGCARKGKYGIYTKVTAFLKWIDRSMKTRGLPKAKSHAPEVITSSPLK
T1 sequence (P00742 41-179 partner limits assumed): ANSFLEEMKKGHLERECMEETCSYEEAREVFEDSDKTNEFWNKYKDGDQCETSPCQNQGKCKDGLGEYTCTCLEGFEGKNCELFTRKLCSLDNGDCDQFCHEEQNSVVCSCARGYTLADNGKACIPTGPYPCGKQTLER

On to `Cc1cc(C#CCN(Cc2ccccc2)c2cccc(C(=N)N)c2)ccc1C(=O)N1CC=CC1` [Example 37, 3-{N-benzyl-3-[3-methyl-4-(2,5-dihydropyrrol-1-yl-carbonyl)-phenyl]-propargylamino}-benzamidine-hydrochloride], for which the IC50 was 4 nM.

The record behind these values is US7005437B2, “Substituted aryl and heteroaryl derivatives, the preparation thereof and the use therof as pharmaceutical compositions” (Boehringer Ingelheim Pharma KG, priority 2001, dated 2006).
